Laboratory results reported in patent publication US10370333B2 (Sanford Burnham Prebys Medical Discovery Institute, priority 2012, dated 2019).

The molecules below were run against TNAP (Homo sapiens (Human), UniProt P05186) (assay: TNAP (PPi) inhibition assay, pyrophosphate as substrate).
Format: biochemical
Summary of the method: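 Enzyme source was conditioned serum-free medium from COS-1 cells transiently expressing tagged human TNAP, dialyzed against TBS with MgCl2/ZnCl2. Activity on natural substrate PPi at pH 7.4 read as liberated phosphate (Biomol Green).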

| Structure (SMILES) | IC50 [nM] |
| --- | --- |
| COc1ccc(OC)c(S(=O)(=O)Nc2cncc(-c3ccsc3)c2)c1 [Example III-76, 2,5-Dimethoxy-N-(5-(thiophen-3-yl)pyridin-3-yl)benzenesulfonamide] | < 100 |
| COc1ccc(Br)cc1S(=O)(=O)Nc1cncc(-c2ccsc2)c1 [Example III-77, 5-Bromo-2-methoxy-N-(5-(thiophen-3-yl)pyridin-3-yl)benzenesulfonamide] | < 100 |
| COc1ccc(Cl)cc1S(=O)(=O)Nc1cncc(-c2ccsc2)c1 [Example III-78, 5-Chloro-2-methoxy-N-(5-(thiophen-3-yl)pyridin-3-yl)benzenesulfonamide] | < 100 |
| COc1ccc(OC)c(S(=O)(=O)Nc2cncc(-c3nccs3)c2)c1 [Example III-79, 2,5-Dimethoxy-N-(5-(thiazol-2-yl)pyridin-3-yl)benzenesulfonamide] | < 100 |
| COc1ccc(Br)cc1S(=O)(=O)Nc1cncc(-c2nccs2)c1 [Example III-80, 5-Bromo-2-methoxy-N-(5-(thiazol-2-yl)pyridin-3-yl)benzenesulfonamide] | < 100 |
| COc1ccc(Cl)cc1S(=O)(=O)Nc1cncc(-c2nccs2)c1 [Example III-81, 5-Chloro-2-methoxy-N-(5-(thiazol-2-yl)pyridin-3-yl)benzenesulfonamide] | < 100 |
| COc1ccc(OC)c(S(=O)(=O)Nc2cncc(-c3cncs3)c2)c1 [Example III-82, 2,5-Dimethoxy-N-(5-(thiazol-5-yl)pyridin-3-yl)benzenesulfonamide] | < 100 |
| COc1ccc(Br)cc1S(=O)(=O)Nc1cncc(-c2cncs2)c1 [Example III-83, 5-Bromo-2-methoxy-N-(5-(thiazol-5-yl)pyridin-3-yl)benzenesulfonamide] | < 100 |
| COc1ccc(Cl)cc1S(=O)(=O)Nc1cncc(-c2cncs2)c1 [Example III-84, 5-Chloro-2-methoxy-N-(5-(thiazol-5-yl)pyridin-3-yl)benzenesulfonamide] | < 100 |
| COc1ccc(OC)c(S(=O)(=O)Nc2cncc(-c3cscn3)c2)c1 [Example III-85, 2,5-Dimethoxy-N-(5-(thiazol-4-yl)pyridin-3-yl)benzenesulfonamide] | < 100 |
| COc1ccc(Br)cc1S(=O)(=O)Nc1cncc(-c2cscn2)c1 [Example III-86, 5-Bromo-2-methoxy-N-(5-(thiazol-4-yl)pyridin-3-yl)benzenesulfonamide] | < 100 |
| COc1ccc(Cl)cc1S(=O)(=O)Nc1cncc(-c2cscn2)c1 [Example III-87, 5-Chloro-2-methoxy-N-(5-(thiazol-4-yl)pyridin-3-yl)benzenesulfonamide] | < 100 |
| COc1ccc(OC)c(S(=O)(=O)Nc2cncc(-c3cnn(C)c3)c2)c1 [Example III-88, 2,5-Dimethoxy-N-(5-(1-methyl-1H-pyrazol-4-yl)pyridin-3-yl)benzenesulfonamide] | < 100 |
| COc1ccc(Br)cc1S(=O)(=O)Nc1cncc(-c2cnn(C)c2)c1 [Example III-89, 5-Bromo-2-methoxy-N-(5-(1-methyl-1H-pyrazol-4-yl)pyridin-3-yl)benzenesulfonamide] | < 100 |
| COc1ccc(Cl)cc1S(=O)(=O)Nc1cncc(-c2cnn(C)c2)c1 [Example III-90, 5-Chloro-2-methoxy-N-(5-(1-methyl-1H-pyrazol-4-yl)pyridin-3-yl)benzenesulfonamide] | < 100 |
| COc1ccc(OC)c(S(=O)(=O)Nc2cncc(-c3ncccn3)c2)c1 [Example III-91, 2,5-Dimethoxy-N-(5-(pyrimidin-2-yl)pyridin-3-yl)benzenesulfonamide] | 100 to 1000 |
| COc1ccc(Br)cc1S(=O)(=O)Nc1cncc(-c2ncccn2)c1 [Example III-92, 5-Bromo-2-methoxy-N-(5-(pyrimidin-2-yl)pyridin-3-yl)benzenesulfonamide] | < 100 |
| COc1ccc(Cl)cc1S(=O)(=O)Nc1cncc(-c2ncccn2)c1 [Example III-93, 5-Chloro-2-methoxy-N-(5-(pyrimidin-2-yl)pyridin-3-yl)benzenesulfonamide] | < 100 |
| COc1ccc(OC)c(S(=O)(=O)Nc2cncc(-c3cnccn3)c2)c1 [Example III-94, 2,5-Dimethoxy-N-(5-(pyrazin-2-yl)pyridin-3-yl)benzenesulfonamide] | < 100 |
| COc1ccc(Br)cc1S(=O)(=O)Nc1cncc(-c2cnccn2)c1 [Example III-95, 5-Bromo-2-methoxy-N-(5-(pyrazin-2-yl)pyridin-3-yl)benzenesulfonamide] | < 100 |
| COc1ccc(Cl)cc1S(=O)(=O)Nc1cncc(-c2cnccn2)c1 [Example III-96, 5-Chloro-2-methoxy-N-(5-(pyrazin-2-yl)pyridin-3-yl)benzenesulfonamide] | < 100 |
| COC(=O)c1cncc(NS(=O)(=O)c2cc(Br)ccc2OC)c1 [Example IV-1, Methyl 5-(5-bromo-2-methoxyphenylsulfonamido)nicotinate] | < 100 |
| CCOC(=O)c1cncc(NS(=O)(=O)c2cc(Br)ccc2OC)c1 [Example IV-2, Ethyl 5-(5-bromo-2-methoxyphenylsulfonamido)nicotinate] | < 100 |
| CCCOC(=O)c1cncc(NS(=O)(=O)c2cc(Br)ccc2OC)c1 [Example IV-3, Propyl 5-(5-bromo-2-methoxyphenylsulfonamido)nicotinate] | < 100 |

| Structure (SMILES) | IC50 [nM] |
| --- | --- |
| COc1ccc(Br)cc1S(=O)(=O)Nc1cncc(C(=O)OC2CCCCC2)c1 [Example IV-4, Cyclohexyl 5-(5-bromo-2-methoxyphenylsulfonamido)nicotinate] | < 100 |
| COc1ccc(Br)cc1S(=O)(=O)Nc1cncc(C(=O)Oc2ccccc2)c1 [Example IV-5, Phenyl 5-(5-bromo-2-methoxyphenylsulfonamido)nicotinate] | < 100 |
| CCOC(=O)c1cncc(NS(=O)(=O)c2cc(Cl)ccc2OC)c1 [Example IV-7, Ethyl 5-(5-chloro-2-methoxyphenylsulfonamido)nicotinate] | < 100 |
| CCCOC(=O)c1cncc(NS(=O)(=O)c2cc(Cl)ccc2OC)c1 [Example IV-8, Propyl 5-(5-chloro-2-methoxyphenylsulfonamido)nicotinate] | < 100 |
| COc1ccc(Cl)cc1S(=O)(=O)Nc1cncc(C(=O)OC2CCCCC2)c1 [Example IV-9, Cyclohexyl 5-(5-chloro-2-methoxyphenylsulfonamido)nicotinate] | < 100 |
| COc1ccc(Cl)cc1S(=O)(=O)Nc1cncc(C(=O)Oc2ccccc2)c1 [Example IV-10, Phenyl 5-(5-chloro-2-methoxyphenylsulfonamido)nicotinate] | < 100 |
| COC(=O)c1cncc(NS(=O)(=O)c2cc(OC)ccc2OC)c1 [Example IV-11, Methyl 5-(2,5-dimethoxyphenylsulfonamido)nicotinate] | < 100 |
| CCOC(=O)c1cncc(NS(=O)(=O)c2cc(OC)ccc2OC)c1 [Example IV-12, Ethyl 5-(2,5-dimethoxyphenylsulfonamido)nicotinate] | < 100 |
| CCCOC(=O)c1cncc(NS(=O)(=O)c2cc(OC)ccc2OC)c1 [Example IV-13, Propyl 5-(2,5-dimethoxyphenylsulfonamido)nicotinate] | < 100 |
| COc1ccc(OC)c(S(=O)(=O)Nc2cncc(C(=O)OC3CCCCC3)c2)c1 [Example IV-14, Cyclohexyl 5-(2,5-dimethoxyphenylsulfonamido)nicotinate] | < 100 |
| COc1ccc(OC)c(S(=O)(=O)Nc2cncc(C(=O)Oc3ccccc3)c2)c1 [Example IV-15, Phenyl 5-(2,5-dimethoxyphenylsulfonamido)nicotinate] | < 100 |
| CNC(=O)c1cncc(NS(=O)(=O)c2cc(Br)ccc2OC)c1 [Example IV-16, 5-(5-Bromo-2-methoxyphenylsulfonamido)-N-methylnicotinamide] | 100 to 1000 |
| CCNC(=O)c1cncc(NS(=O)(=O)c2cc(Br)ccc2OC)c1 [Example IV-18, 5-(5-Bromo-2-methoxyphenylsulfonamido)-N-ethylnicotinamide] | 100 to 1000 |
| CCCNC(=O)c1cncc(NS(=O)(=O)c2cc(Br)ccc2OC)c1 [Example IV-19, 5-(5-Bromo-2-methoxyphenylsulfonamido)-N-propylnicotinamide] | 100 to 1000 |
| COc1ccc(Br)cc1S(=O)(=O)Nc1cncc(C(=O)NC2CCCCC2)c1 [Example IV-20, 5-(5-Bromo-2-methoxyphenylsulfonamido)-N-cyclohexylnicotinamide] | < 100 |
| COCCNC(=O)c1cncc(NS(=O)(=O)c2cc(Br)ccc2OC)c1 [Example IV-21, 5-(5-Bromo-2-methoxyphenylsulfonamido)-N-(2-methoxyethyl)nicotinamide] | 100 to 1000 |
| COc1ccc(Br)cc1S(=O)(=O)Nc1cncc(C(=O)NCCN(C)C)c1 [Example IV-22, 5-(5-Bromo-2-methoxyphenylsulfonamido)-N-(2-(dimethylamino)ethyl)nicotinamide] | 100 to 1000 |
| COc1ccc(Br)cc1S(=O)(=O)Nc1cncc(C(=O)Nc2ccccc2)c1 [Example IV-23, 5-(5-Bromo-2-methoxyphenylsulfonamido)-N-phenylnicotinamide] | 100 to 1000 |
| COc1ccc(Br)cc1S(=O)(=O)Nc1cncc(C(=O)N2CCOCC2)c1 [Example IV-24, 5-Bromo-2-methoxy-N-(5-(morpholine-4-carbonyl)pyridin-3-yl)benzenesulfonamide] | > 1000 |
| COc1ccc(Br)cc1S(=O)(=O)Nc1cncc(C(=O)N2CCN(C)CC2)c1 [Example IV-25, 5-Bromo-2-methoxy-N-(5-(4-methylpiperazine-1-carbonyl)pyridin-3-yl)benzenesulfonamide] | 100 to 1000 |
| COc1ccc(Cl)cc1S(=O)(=O)Nc1cncc(C(N)=O)c1 [Example IV-26, 5-(5-Chloro-2-methoxyphenylsulfonamido)nicotinamide] | < 100 |
| CCCNC(=O)c1cncc(NS(=O)(=O)c2cc(Cl)ccc2OC)c1 [Example IV-29, 5-(5-Chloro-2-methoxyphenylsulfonamido)-N-propylnicotinamide] | < 100 |
| COc1ccc(Cl)cc1S(=O)(=O)Nc1cncc(C(=O)NC2CCCCC2)c1 [Example IV-30, 5-(5-Chloro-2-methoxyphenylsulfonamido)-N-cyclohexylnicotinamide] | < 100 |
